The experiment deals with Glycogen synthase kinase-3 beta (Homo sapiens, UniProt P49841). Type of experiment: cell-based, Sf9.
Sequence of Glycogen synthase kinase-3 beta (P49841 whole entry): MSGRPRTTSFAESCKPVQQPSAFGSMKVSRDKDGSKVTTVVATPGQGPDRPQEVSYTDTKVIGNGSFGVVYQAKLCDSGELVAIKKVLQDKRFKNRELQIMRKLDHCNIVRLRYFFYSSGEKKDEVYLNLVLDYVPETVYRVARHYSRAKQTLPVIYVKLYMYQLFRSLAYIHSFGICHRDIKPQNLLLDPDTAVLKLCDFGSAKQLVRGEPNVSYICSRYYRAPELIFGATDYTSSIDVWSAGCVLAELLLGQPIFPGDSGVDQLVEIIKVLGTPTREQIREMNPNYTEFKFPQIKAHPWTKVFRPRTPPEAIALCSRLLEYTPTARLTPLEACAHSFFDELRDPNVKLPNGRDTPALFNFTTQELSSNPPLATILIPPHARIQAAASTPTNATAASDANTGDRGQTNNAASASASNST
Description: Inhibition of GSK3beta (unknown origin) expressed in Sf9 cells using GS1 as substrate and [gamma32]ATP after 30 min by scinitllation counting
As a reminder, the IC50 is the midpoint of a concentration-inhibition curve. Low values mean higher potency, high ones lower potency. Compound `CN1CCN(c2cnc(NCCNc3ccc([N+](=O)[O-])c(N)n3)nc2-c2ccc(Cl)cc2Cl)C(=O)C1` showed an IC50 of 3.98 nM.

The compound `CC(=O)NC1=NC(=O)/C(=C2\CCNC(=O)c3c2cc(Br)n3C(C)=O)N1` [HYMENIALDISINE 2] showed an IC50 of 129 nM.

`O=C1NC(=O)C(c2cncc3ccoc23)=C1c1cn2c3c(cccc13)CN(C(=O)N1CCOCC1)CC2` [BISARYLMALEIMIDE 2] gave an IC50 of 0.794 nM.

`O=C1Nc2ccc(Br)cc2/C1=C1/Nc2ccccc2/C1=N\O` [INDIRUBIN 2] had an IC50 of 5.01 nM.

As for `CN(C)CCNC(=O)c1ccc(/C=N/Nc2ncnc3c2cnn3-c2cccc3[nH]cnc23)cc1` [PYRAZOLOPYRIMIDINE 1], the IC50 was 1.58 nM.

Compound `CC(=O)O/N=C1/C(=C2/C(=O)Nc3cc(Cl)c(Cl)cc32)Nc2ccccc21` [INDIRUBIN 1] gave a concentration for half-maximal inhibition (IC50) of 3.98 nM.

What is called Ki is the dissociation constant of the complex between target and ligand, obtained from inhibition or displacement. `COc1ccc(Nc2nccc(-c3cnn4ncccc34)n2)cc1OC` [PYRAZOLOPYRIDAZINE 2] gave a Ki of 12 nM.

`O=C1NC(=O)C(c2cnc3cccnn23)=C1c1cn2c3c(cccc13)CN(C(=O)N1CCCCC1)CC2` [BISARYLMALEIMIDE 1] gave an IC50 of 0.708 nM.

`O=C1NC(=O)C2=C1c1cn(c3ccccc13)CCOCCOCCOCCn1cc2c2ccccc21` [INDOLYLYLMALEIMIDE 2] gave an IC50 of 21.9 nM.

The values are drawn from ChEMBL document CHEMBL3045221, “A 2D image-based approach for modelling some glycogen synthase kinase 3 inhibitors” (Med Chem Res, 2007).
